Measurements as given in paper PMC10950880, “The RsfSR two-component system regulates SigF function by monitoring the state of the respiratory electron transport chain in Mycobacterium smegmatis” (The Journal of Biological Chemistry, 2024).

Assays:
[1] = biological target: T1, RsfSTr (truncated RsfS, MSMEG_6130) (Mycolicibacterium smegmatis, UniProt A0R5B3); assay: autophosphorylation and phosphotransfer to RsfR, Phos-tag SDS-PAGE; assay type: biochemical; conditions: 1 mM ATP, 300 mM Tris-HCl pH 8, 50 mM KCl, 10 mM MgCl2, 30 C; covalent
T1 construct: kinase domain only (amino acids 190-525), lacks CHASE3 and N-terminal region; C-terminal His6 kept; from E. coli BL21; partially purified
T1 sequence (A0R5B3 entry or part of it): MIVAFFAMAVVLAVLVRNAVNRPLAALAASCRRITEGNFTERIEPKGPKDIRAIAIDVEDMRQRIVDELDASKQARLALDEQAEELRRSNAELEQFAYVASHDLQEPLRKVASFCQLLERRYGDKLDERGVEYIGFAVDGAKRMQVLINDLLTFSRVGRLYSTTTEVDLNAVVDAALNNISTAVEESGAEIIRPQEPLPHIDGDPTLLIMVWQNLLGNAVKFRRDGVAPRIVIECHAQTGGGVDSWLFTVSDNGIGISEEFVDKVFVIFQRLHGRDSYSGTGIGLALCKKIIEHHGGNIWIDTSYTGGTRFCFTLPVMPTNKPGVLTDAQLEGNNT

RsfR (MSMEG_6131) = biological target: T2, RsfR (MSMEG_6131) (Mycolicibacterium smegmatis, UniProt A0R5B4); assay: phosphorylation of RsfR by acetyl phosphate (Phos-tag SDS-PAGE); RsfR then tested on P-RsfB; assay type: biochemical; conditions: 40 mM acetyl phosphate, 300 mM Tris-HCl pH 8.0, 50 mM KCl, 10 mM MgCl2, no ATP, 30 C; phosphodonor, covalent
T2 construct: C-terminal His6 kept; from E. coli BL21 (DE3), pT7-7rsfR
T2 sequence (A0R5B4 1-402): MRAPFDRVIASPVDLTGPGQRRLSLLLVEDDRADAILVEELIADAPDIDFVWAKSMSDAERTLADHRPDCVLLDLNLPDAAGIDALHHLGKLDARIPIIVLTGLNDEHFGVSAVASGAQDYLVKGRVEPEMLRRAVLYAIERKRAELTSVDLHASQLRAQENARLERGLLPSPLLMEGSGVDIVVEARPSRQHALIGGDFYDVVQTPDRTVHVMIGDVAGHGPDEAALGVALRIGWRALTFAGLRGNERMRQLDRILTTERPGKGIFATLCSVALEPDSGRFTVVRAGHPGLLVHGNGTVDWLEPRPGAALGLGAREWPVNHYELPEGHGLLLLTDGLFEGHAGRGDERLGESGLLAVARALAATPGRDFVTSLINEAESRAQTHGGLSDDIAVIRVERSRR

SMILES	autophosphorylation and phosphotransfer to RsfR, Phos-tag SDS-PAGE [1]	RsfR phosphorylation by acetyl phosphate (RsfR (MSMEG_6131))
Nc1ncnc2c1ncn2[C@@H]1O[C@H](COP(=O)(O)OP(=O)(O)OP(=O)(O)O)[C@@H](O)[C@H]1O [ATP]	RsfSTr was autophosphorylated in the reaction mixture	
CC(=O)OP(=O)(O)O [acetyl phosphate]		Acetyl phosphate phosphorylated purified RsfR less efficiently than RsfSTr
